Measured values published in patent US20170112792A1, “ENHANCED ATRA-RELATED COMPOUNDS DERIVED FROM STRUCTURE-ACTIVITY RELATIONSHIPS AND MODELING FOR INHIBITING PIN1” (Beth Israel Deaconess Medical Center, Inc., priority 2014, published 2017).

Experiments:
MDA-MB-231 cells = test: MDA-MB-231 xenograft in nude mice
Description: In pilot experiments, MDA-MB-231 cells were subcutaneously injected into female nude mice in the flank.

[1] = tested on: Pin1 WT and Pin1 KO mouse embryonic fibroblasts (MEFs); test: cell growth of Pin1 WT and KO MEFs
Experimental: For cell growth assays described below, cells were seeded in a density of 3000 cells per well in 96-well flat-bottomed plates, and incubated for 24 h in 10% FBS-supplemented DMEM culture medium. […] Control cells received DMSO at a concentration equal to that in drug-treated cells. After 72 hours, the number of cells was counted after trypsin digestion, or medium containing 0.5 mg/ml 3-(4,5-dimethylthiazol-2-yl)-2,5-diphenyl-2H-tetrazolium bromide was added to each well for 2 hours of incubation at 37° C., followed by removal of the media before the addition of 200 μl DMSO. Absorbance was determined at 570 nm.

[2] = tested on: APL cells isolated from hCG-PML-RARα transgenic mice; settings: same regimens
DC2.4 cells = test: IL-33-induced gene expression in DC2.4 cells expressing IRAKM or mutants; assay type: cell-based, mouse
Description: In the left panels, western blots show protein levels of IRAKM, Pin1 and tubulin. The right panels show the relative gene expression of IL-6, CXCL2, CSF3 and CCL5 in the different samples normalized to actin.

cyclin D1 promoter = cyclin D1 promoter luciferase activity with Pin1 overexpression; settings: 72 hours
[3] = tested on: Pin1 and its substrate oncogenes and tumor suppressors; test: immunoblot of Pin1 and its substrate proteins in breast cells
Experimental: (§2) For immunoprecipitation and immunoblotting in the examples below, cells were polyethylenimine (PEI)- or lipofemamine-transfected with 8 μg of various plasmids, incubated in 10 cm dishes for 24 hours, and subsequently treatment with drugs as needed. […] After centrifugation at 13,000 g for 10 minutes, one tenth of the supernatant was stored as input, and the remainder was incubated 12 hours with M2 Flag agarose (Sigma). After brief centrifugation, immunoprecipitates were collected, extensively washed with the aforementioned lysis buffer twice, suspended in 2×SDS sample buffer (100 mM Tris-HCl, pH 6.8, 4% SDS, 5% β-mercaptoethanol, 20% glycerol, and 0.1% bromphenol blue), boiled for 10 minutes, and subjected to immunoblotting analysis. […] After electrophoresis, gel was transferred to nitrocellulose membranes using a semidry transfer cell. The transblotted membrane was washed twice with Tris-buffered saline containing 0.1% Tween 20 (TBST). After blocking with TBST containing 5% bovine serum albumin (BSA) for 1 hour, the membrane was incubated with the appropriate primary antibody (diluted 1:1000) in 2% BSA-containing TBST at 4° C. overnight. After incubation with the primary antibody, the membrane was washed three times with TBST for a total of 30 minutes followed by incubation with horseradish peroxidase (HRP)-conjugated goat anti-rabbit or anti-mouse IgG (diluted 1:2500) for 1 hour at room temperature. After three extensive washes with TBST for a total of 30 minutes, the immunoblots were visualized by enhanced chemiluminescence.

[4] = tested on: BMDCs co-cultured with naive CD4+ cells; test: IL-33-induced TH2 polarization, BMDC / naive CD4+ T cell coculture; settings: IL-33 50 ng/ml, 5 μM ATRA
Experimental: BMDCs were isolated from WT or Pin1 KO mice in a 1:5 ratio for 5 days with no antigen being added. […] Supernatants were analyzed for cytokines on day 5.
To examine whether Pin1 is required for IL-33-induced TH2 polarization, we evaluated the effects of Pin1 KO derived dendritic cells in IL-33-induced TH2 polarization by co-culturing bone marrow dendritic cells (BMDCs) derived from WT or Pin1 KO mice with WT naïve CD4^+ cells. The cells were treated with IL-33 and resultant IL-5 and IL-13 were measured.

RAR = test: transactivation of RAR downstream target genes
Pin1 [5] = biological target: T1, Pin1 (Homo sapiens, UniProt Q13526); test: photoaffinity labeling of Pin1 with [3H]ATRA; assay type: binding; settings: read-out: equilibrium dissociation constant Kd
T1 construct: His6 (N); made in house; host or cells: E. coli (inferred: pET28, IPTG induction, LB culture; BL21(DE3) is printed only for the WW domain)
T1 sequence (Q13526 whole entry, the tested form may be a part): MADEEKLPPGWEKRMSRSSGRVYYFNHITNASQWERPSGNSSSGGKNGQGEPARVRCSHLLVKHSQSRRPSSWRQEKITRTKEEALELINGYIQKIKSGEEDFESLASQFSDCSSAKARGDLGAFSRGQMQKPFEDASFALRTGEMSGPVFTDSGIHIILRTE
Experimental: […] of Pin1 was incubated in microcentrifuge tubes with a series of concentrations of all-trans-[11,12-^3H]-retinoic acid (PerkinElmer, 43.7 Ci/mmol) in 20 μl of the FP assay buffer at 23° C. with agitation for 2 hours in the dark. The caps of the microcentrifuge tubes were opened, and the samples were placed on ice and exposed to an Electrophoresis System 365/254 nm UV hand lamp (Fisher Scientific) suspended 6 cm above the surface of the liquid for 15 minutes. The samples were boiled in SDS sample buffer and subsequently separated on standard SDS/PAGE gels. The gels were dried and then used for fluorography at −80° C. for 5 days and quantified using Quantity One from BioRad.

GST-Pin1 [6] = biological target: T2, GST-Pin1 (Homo sapiens, UniProt Q13526); test: chymotrypsin coupled PPlase activity assay, Pin1; assay type: biochemical
T2 sequence (Q13526 whole entry): as the sequence (Q13526 whole entry, the tested form may be a part) above
Description: where Km is the Michaelis constant for the used substrate, S is the initial concentration of the substrate in the assay, and the IC50 value is of the inhibitor.

IL-33-induced asthma = IL-33-induced asthma in mice
SKBR3 cells = test: foci formation assay with Pin1 overexpression
[7] = tested on: human normal and breast cancer cell lines; test: cell growth of human normal and breast cancer cell lines; assay type: cell-based; settings: 72 hours
Experimental: (§1) Absorbance was determined at 570 nm.
To test this possibility, we chose breast cancer as a model due to the substantial oncogenic role of Pin1 in vitro and in vivo.

human APL NB4 cells = test: NB4 cell growth; assay type: cell-based
Experimental: as §1

[8] = tested on: NIH3T3 cells stably expressing Flag-tagged Pin1; test: centrosome amplification induced by Pin1 overexpression; settings: 72 hours
Experimental: Tissue samples were washed with PBS and fixed with 4% paraformaldehyde at room temperature for 20 minutes, followed by permeabilization and blocking with PBS containing 0.1% Triton X-100 and 5% FBS for 1 hour. After another wash with PBS, immunostaining was performed by incubating the cells with mouse anti-Pin1 (1:1000), or rabbit anti-PML (Santa Cruz; 1:100) primary antibodies at 4° overnight. Primary antibodies were diluted in PBS containing 0.1% Triton X-100, 0.2% BSA, 0.5 mM PMSF, and 1 mM dithiothreitol. […] Samples were nuclear counterstained with 4,6-diamidino-2-phenylindole (DAPI), mounted and visualized with a LSM510 confocal imaging system. For centrosome duplication assays, NIH3T3 cells were used. Cells were synchronized in G1/S phase by adding 10 μg/ml aphidicolin for 24 hours, then fixed with 4% paraformaldehyde at room temperature for 20 minutes. Cells were then stained for centrosomes with anti-γ-tubulin antibodies (Sigma; 1:100) and analyzed by confocal microscopy.

GST-cyclophilin = test: chymotrypsin coupled PPlase activity assay, cyclophilin
Pin1 and PML-RARα = Pin1 and PML-RARα immunostaining in bone marrow of APL patients
Experimental: Tissue samples were washed with PBS and fixed with 4% paraformaldehyde at room temperature for 20 minutes, followed by permeabilization and blocking with PBS containing 0.1% Triton X-100 and 5% FBS for 1 hour. After another wash with PBS, immunostaining was performed by incubating the cells with mouse anti-Pin1 (1:1000), or rabbit anti-PML (Santa Cruz; 1:100) primary antibodies at 4° overnight. Primary antibodies were diluted in PBS containing 0.1% Triton X-100, 0.2% BSA, 0.5 mM PMSF, and 1 mM dithiothreitol. […] Samples were nuclear counterstained with 4,6-diamidino-2-phenylindole (DAPI), mounted and visualized with a LSM510 confocal imaging system.
Bone marrow aspirates were obtained with informed consent from the iliac crest of patients in whom the diagnosis of acute promyelocytic leukemia was suspected based on the morphological evaluation of peripheral blood smear. […] Samples tested positive for the PML/RARα rearrangement by RT-PCR.

[9] = humans; cited from earlier work
Pin1 [10] = test: Pin1 protein level, mRNA and stability in MEFs (immunoblot, RT-PCR, CHX chase); assay type: cell-based, mouse
Experimental: RNA from cells was extracted with the Total RNA isolation mini kit (Agilent). cDNA was prepared with transcriptor first strand cDNA synthesis kit (Roche) and PCR was carried out with iQ SYBR Green Supermix (Bio-Rad) or SYBR Green PCR Master Mix (Applied Blosystems). 1 μl cDNA was used for each RT-PCR reaction. Samples were run on the QIAGEN Rotor-Gene Q real-time cycler or the Applied Biosystems StepOnePlus Real Time PCR instrument. GAPDH was used as an internal control. Analysis was performed with the ^ΔΔCt method. The following primers were used: […]

MDA-MB-468 cells = test: MDA-MB-468 xenograft in nude mice
Experimental: Tumor sizes were measured weekly and mice were sacrificed after 7 weeks to collect tumor tissues (37D). […] Pin1 and cyclin D1 in xenograft tumors were assayed by IB (37F).

GST-FKBP12 = GST-FKBP12 (Homo sapiens, UniProt P62942); test: chymotrypsin coupled PPlase activity assay, FKBP12; assay type: biochemical
Chain of GST-FKBP12 (P62942 whole entry): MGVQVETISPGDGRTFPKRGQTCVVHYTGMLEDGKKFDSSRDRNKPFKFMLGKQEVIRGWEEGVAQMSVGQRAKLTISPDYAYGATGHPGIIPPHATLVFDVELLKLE

MRL/lpr lupus prone mice = test: MRL/lpr lupus prone mice
[11] = tested on: Pin1 and PML-RARα in NB4 cells; test: immunoblot of Pin1 and PML-RARα in APL NB4 cells; assay type: cell-based, human
Experimental: as §2

GST-Pin1 [12] = biological target: T2, GST-Pin1; test: fluorescence polarization (FP) pTide competition assay / FP-HTS
Description: This sequence was optimized for solubility and binding to GST-PPI. […] Measurements of fluorescence polarization and fluorescence absorbance were made in black 384-well plates (Corning) using a Synergy II plate reader. Compounds were transferred to plates using a custom-built Seiko pin-transfer robot at the Institute for Chemistry and Cell Biology at Harvard Medical School. The assay can tolerate up to 10%/o DMSO.
Molecules that compete with pTide for binding to the active site, e.g., Pin1 substrates, were detected under equilibrium conditions. A Z score was used to identify and rank those molecules that were most competitive with pTide (e.g., that have higher binding affinity). A Z score is defined as Z=(x−μ)/σ, where x is a raw score, μ is the mean of the population, and σ is the standard deviation of the population. Molecules with the most negative Z scores represent those with the highest Pin1 binding affinity. The Z′ value for this assay was around 0.70 and was consistent for day-to-day performance, with a coefficient of variation in the range of 4-5%.
A lower value of Ki is indicative of higher association and, accordingly, higher affinity of the substrate to the protein.

[13] = 5 or 10 mg 21 day pellets implanted 1 week after inoculation
[14] = cells stably expressing Flag-Pin1, ATRA implants
[15] = three sensitive cancer cell lines, 72 hours

CC1=C(/C=C/C(C)=C/C=C/C(C)=C/C(=O)O)C(C)(C)CCC1 [ATRA, (2E,4E,6E,8E)-3,7-dimethyl-9-(2,6,6-trimethylcyclohexen-1-yl)nona-2,4,6,8-tetraenoic acid]
antitumor activity, intraperitoneal (MDA-MB-231 cells; 12.5 mg/kg i.p. 3 times a week for 8 weeks): modest antitumor activity
Pin1 and cyclin D1 in xenograft tumors (MDA-MB-231 cells; 5 or 10 mg 21 day pellets): reduced both Pin1 and its substrate cyclin D1
tumor growth, ATRA-releasing pellets (MDA-MB-231 cells; [13]): potently and dose-dependently inhibited tumor growth
endogenous and exogenous Pin1 and cyclin D1 in tumors (MDA-MB-231 cells; [14]): dose-dependently reduced both endogenous and exogenous Pin1, and cyclin D1
tumor growth of Pin1-overexpressing MDA-MB-231 cells (MDA-MB-231 cells; [14]): effectively inhibited by ATRA in a dose-dependent manner
growth inhibition of Pin1 KO MEFs ([1]; Pin1 KO MEFs): much more resistant
growth inhibition of Pin1 WT MEFs ([1]; Pin1 WT MEFs): relatively high concentrations of ATRA were required
PML-RARα in the bone marrow [2]: effectively reduced PML-RARα
Pin1 levels in the bone marrow [2]: reduced Pin1 levels
spleen weights [2]: nearly at basal levels
reduction of target gene expression in IRAKM P111A cells (DC2.4 cells): completely abolished
Pin1 expression (DC2.4 cells; 5 or 10 μM ATRA for three days before IL-33): reduced Pin1 expression
expression of IL-6, CXCL2, CSF3 and CCL5 in IRAKM stably expressing cells (DC2.4 cells; even at low ATRA dose (5 μM)): reduced Pin1 expression (FIG. 63D) and the expression of these target genes
reduction of target gene expression in IRAKM S110E cells (DC2.4 cells; high ATRA dose (10 μM)): some degree of reduction in gene expression still persisted
Pin1-induced activation of the cyclin D1 promoter (cyclin D1 promoter): dose-dependently and fully inhibited
effects on normal breast cells ([3]; normal cells): no appreciable effects
protein levels of Pin1 and its substrate oncogenes [3, 15]: dose-dependent protein reduction
protein levels of Pin1 substrate tumor suppressors [3, 15]: protein induction
TH2 polarization (IL-5 and IL-13 secretion) [4]: drastically attenuated
transactivation of RAR downstream target genes (RAR): effectively and significantly induces transactivation of RAR downstreams
Kd (Pin1 [5]): 0.8 µM
inhibition of PPlase activity of Pin1 (GST-Pin1 [6]): fully inhibited
Ki (GST-Pin1 [6]; Cheng-Prusoff equation, read-out: Ki from PPlase assay): 0.82 µM
IL-33 induced asthma phenotypes (inflammation, airway remodeling, BALF cells) (IL-33-induced asthma; 10 mg 21 day ATRA-releasing pellets, 14 days before intranasal IL-33): dramatically attenuated
BALF IL-12 and TNF-α levels (IL-33-induced asthma; same regimen): no significant effect
BALF IL-13 and -5 levels (IL-33-induced asthma; same regimen): significantly reduced
IRAKM accumulation and nuclear localization in BALF cells (IL-33-induced asthma; same regimen): almost completely abrogated
IRAKM levels in the lung (IL-33-induced asthma; same regimen): reduction of IRAKM levels back to control treated mice
Pin1 protein levels in the lung (IL-33-induced asthma; same regimen): effectively decreased the Pin1 protein levels only after IL-33 was administrated
Pin1-enhanced foci formation (SKBR3 cells): dose-dependently and fully inhibited
sensitivity of malignant breast cells [7]: differential susceptibility
sensitivity of non-transformed MCF10A and HMLE cells [7]: highly resistant
NB4 cell proliferation (human APL NB4 cells): suppressed
Pin1-induced centrosome amplification [8]: dose-dependently and fully inhibited
inhibition of cyclophilin (GST-cyclophilin): did not inhibit
degradation of PML-RARα and Pin1 in RARα, β, γ triple KO MEFs (Flag-PML-RARα and Pin1): induced degradation of PML-RARα and Pin1 similar to that for WT controls
PML-RARα level remaining in APL patients' bone marrow (Pin1 and PML-RARα; 3 days of ATRA treatment): ~40%
Pin1 level remaining in APL patients' bone marrow (Pin1 and PML-RARα; 3 days of ATRA treatment): ~40%
PML-RARα level remaining in APL patients' bone marrow (Pin1 and PML-RARα; 10 days of ATRA treatment): < 10%
Pin1 level remaining in APL patients' bone marrow (Pin1 and PML-RARα; 10 days of ATRA treatment): < 10%
half-life [9]: ~45 min
potency in reducing Pin1 levels and stability, comparison (Pin1 [10]): more potent in reducing Pin1 levels and stability than 13cRA
Pin1 protein level (Pin1 [10]; immunoblot, not W34/K63A mutant): dose-dependently down-regulated Pin1
Pin1 mRNA levels (Pin1 [10]; quantitative RT-PCR): no obvious effects
Pin1 and cyclin D1 in xenograft tumors (MDA-MB-468 cells; 5 or 10 mg 21 day pellets): reduced both Pin1 and its substrate cyclin D1
tumor growth, ATRA-releasing pellets (MDA-MB-468 cells; [13]): potently and dose-dependently inhibited tumor growth
inhibition of FKBP12 (GST-FKBP12): did not inhibit
visual lupus-related phenotypes (fur loss, skin inflammation, lymphoid hyperplasia) (MRL/lpr lupus prone mice; 5 mg ATRA for 8 weeks from 8 weeks of age): drastically suppressed
size of spleen and lymph node (MRL/lpr lupus prone mice; 14 week-old mouse): normal size
glomerular deposition of IgG, C3, and CD68 (MRL/lpr lupus prone mice; mouse, in vivo): potently inhibited
hyperkeratinosis (MRL/lpr lupus prone mice; mouse, in vivo): potently inhibited
Pin1 and PML-RARα expression ([11]; 10 μM, 96 hours, micrographs): reduced Pin1 and PML-RARα expression
PML-RARα level in APL cells ([11]; 72 hours): dose-dependently reduced PML-RARα
Pin1 binding in FP assay (GST-Pin1 [12]): dramatically outperformed the other species
competition with TAMRA-conjugated pTide for Pin1 (GST-Pin1 [12]; TAMRA-labeled probe): competitive
